Test results reported in patent publication US20250108036A1, “COMPOSITIONS FOR REMOVING SENESCENT CELLS AND USES THEREOF” (LIFECEUTIX CO., LTD., priority 2021, published 2025).

Key:
p16, p21 = assay: qRT-PCR of p16 and p21 mRNA in replicative senescent foreskin cells (Example 4); assay type: cell-based, human; conditions: LX-112 3 μM; senescent untreated = 100%
Method: In the same manner as Example 3, natural aging of human foreskin cells was induced, treated with LX-112 at a concentration of 3 μM, and the amounts of the mRNA of p16 and p21, aging-related markers, were analyzed by qRT-PCR (quantitative real-time PCR). As a control group, foreskin cells before senescence induction were used. Specifically, cells were collected and treated with TRIzol Reagent (purchased from Thermo Fisher Scientific) to extract total RNA. The concentration of extracted total RNA was quantified using Nanodrop (purchased from Micro Digital). Genomic DNA was removed from the extracted total RNA using SuperScript IV VILO Master Mix with ezDNase Enzyme (purchased from Thermo Fisher Scientific), and cDNA was prepared. Using the synthesized cDNA, using the housekeeping gene GAPDH as a standard, qRT-PCR for p16 and p21 was performed using SFCgreen I qPCR Master Mix (purchased from SFC Probe), and was analyzed with CFX Connect Real-Time PCR Detection System (purchased from Bio Rad). […] Table 14 calculates the mRNA amounts of p16 and p21 after senescence was induced to 100%, respectively, and compared them with the mRNA amounts of p16 and p21 after treatment with LX-112.

[1] = open field test in obese mice given senescent cells killed by test compounds (Example 16, Table 72); assay type: in vivo, C57BL6J mice; conditions: obese mice administered senescent cells whose death was induced by the test compound
Outline: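 Doxorubicin-senesced (250 nM, 24 h, then 21 days) mouse preadipocytes killed by test compound were injected subcutaneously (5×10^5 cells) into 8-week-old female C57BL6J mice, followed by intraperitoneal senescent preadipocytes on days 7 and 10 and 8 weeks of high-fat diet. Open-field activity expressed as % of mice without killed-cell administration.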

| SMILES | mRNA (%) p16 (p16, p21) | mRNA (%) p21 (p16, p21) | Open Field Test Time in Center (%) [1] |
| --- | --- | --- | --- |
| O=c1c2ccccc2[se]n1CCn1[se]c2ccccc2c1=O [LX-112, 1,2-[bis(1,2-benzisoselenazolone-3(2H)-ketone)]ethane] | 43 (±4) % | 39 (±7) % | – |
| COC(=O)c1ccc([C@H]2c3[nH]c4ccccc4c3C[C@H](C(=O)OC)N2C(=O)CCl)cc1 [LX-405] | – | – | 174.2 (±12.5) % |
